Some test systems named below: 786-0 renal; CCRF-CEM leukemia; DU-145 prostate; HS 578T breast; MCF7 breast; MDA-MB-231 breast; PC-3 prostate; SK-MEL-5 melanoma; SK-OV-3 ovarian; SNB-19 CNS.
Holding throughout (test): NCI tumour cell line growth inhibition, 48 h

The structures appear in SMILES notation.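 48-hour exposure; five concentrations; linearly interpolated endpoints. Here, GI50 denotes the concentration required for 50% inhibition of growth. TGI is the concentration that stops growth completely.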

With `O=C1Nc2ccccc2/C1=C1\CCc2cc(O)ccc21`, the GI50 was 19.2 µM in the assay on 786-0 renal; 7.19 µM in the assay on CCRF-CEM leukemia; 11.4 µM with DU-145 prostate; 7.12 µM in the assay on HS 578T breast; 2.74 µM in the assay on MCF7 breast; 7.22 µM in the assay on MDA-MB-231 breast. The GI50 is 12.4 µM with PC-3 prostate, 6.62 µM with SK-MEL-5 melanoma, 8.5 µM in the assay on SK-OV-3 ovarian and 13.2 µM in the assay with SNB-19 CNS. In addition, the TGI in the assay with 786-0 renal, in the assay with CCRF-CEM leukemia, in the assay on DU-145 prostate, with HS 578T breast, in the assay on MCF7 breast and in the assay with MDA-MB-231 breast was over 25 µM each time. Moreover, the TGI in the assay with PC-3 prostate, in the assay on SK-MEL-5 melanoma, in the assay with SK-OV-3 ovarian and in the assay with SNB-19 CNS was over 25 µM in each case.

Turning to `COc1ccc(-c2cnnn2-c2nonc2-n2cccc2)cc1`, the GI50 in the assay with 786-0 renal is 0.488 µM; with CCRF-CEM leukemia, 0.228 µM; in the assay with DU-145 prostate, 0.342 µM; with HS 578T breast it was 0.239 µM; in the assay with MCF7 breast it was 0.277 µM; in the assay on MDA-MB-231 breast it was 1.21 µM. Further, the GI50 in the assay on PC-3 prostate was 0.331 µM; in the assay with SK-MEL-5 melanoma it was 0.324 µM; with SK-OV-3 ovarian it was 0.319 µM; in the assay on SNB-19 CNS, 0.722 µM. Further, the TGI is over 34 µM in the assay with 786-0 renal; 3.85 µM with CCRF-CEM leukemia; 2.62 µM in the assay with DU-145 prostate; 2.13 µM in the assay on HS 578T breast; 60.3 µM in the assay with MCF7 breast; over 25 µM with MDA-MB-231 breast. Moreover, the TGI was 31.9 µM in the assay with PC-3 prostate, 13.2 µM in the assay on SK-MEL-5 melanoma, 4.28 µM with SK-OV-3 ovarian and over 100 µM in the assay on SNB-19 CNS.

As for `Cc1ccc(OCCOCCOCCOCCOc2ccc(C)n(O)c2=S)c(=S)n1O`, the GI50 in the assay with 786-0 renal is 0.335 µM; in the assay on CCRF-CEM leukemia it was under 0.01 µM; in the assay with DU-145 prostate, 0.184 µM; in the assay on HS 578T breast, 3.58 µM; in the assay with MCF7 breast, under 0.01 µM; in the assay with MDA-MB-231 breast it was 0.114 µM. Besides, the GI50 in the assay with PC-3 prostate is 0.0155 µM; with SK-MEL-5 melanoma it was 0.0438 µM; in the assay on SK-OV-3 ovarian, 0.0753 µM; with SNB-19 CNS, 0.221 µM. Moreover, the TGI is over 100 µM with 786-0 renal; over 100 µM with CCRF-CEM leukemia; over 100 µM in the assay on DU-145 prostate; over 100 µM with HS 578T breast; 43.6 µM in the assay with MCF7 breast; over 100 µM with MDA-MB-231 breast. In addition, the TGI in the assay with PC-3 prostate was over 100 µM; in the assay on SK-MEL-5 melanoma it was 11.3 µM; in the assay on SK-OV-3 ovarian it was over 100 µM; in the assay with SNB-19 CNS, over 100 µM.

Take `C=CC(=O)N1CN(C(=O)C=C)CN(C(=O)C=C)C1`: the GI50 is 7.15 µM in the assay with 786-0 renal; 2.82 µM in the assay with CCRF-CEM leukemia; 10.7 µM in the assay on DU-145 prostate; over 100 µM with HS 578T breast; 3.65 µM in the assay on MCF7 breast; 11.5 µM with MDA-MB-231 breast. The GI50 with PC-3 prostate is 9.16 µM; in the assay on SK-MEL-5 melanoma, 9.61 µM; in the assay with SK-OV-3 ovarian it was 26.8 µM; in the assay with SNB-19 CNS, 33.1 µM. The TGI was 24.7 µM with 786-0 renal; 9.78 µM in the assay on CCRF-CEM leukemia; 29 µM with DU-145 prostate; over 100 µM in the assay with HS 578T breast; 15.5 µM in the assay on MCF7 breast; 35.6 µM in the assay with MDA-MB-231 breast. The TGI is 53.9 µM in the assay on PC-3 prostate, 24.7 µM in the assay on SK-MEL-5 melanoma, over 100 µM in the assay on SK-OV-3 ovarian and over 100 µM with SNB-19 CNS.

On to `COc1ccc(-c2nn(-c3cccc(Cl)c3)cc2-c2cc(-c3ccccc3)[nH]c(=O)c2C#N)cc1`, for which the GI50 in the assay on 786-0 renal was 1.6 µM; in the assay with CCRF-CEM leukemia, 8.38 µM; with DU-145 prostate it was 10.3 µM; in the assay with HS 578T breast, 1.41 µM; in the assay on MCF7 breast, 9.02 µM; with MDA-MB-231 breast, 1.24 µM. In addition, the GI50 in the assay with PC-3 prostate is 6.01 µM; with SK-MEL-5 melanoma, 5.76 µM; in the assay on SK-OV-3 ovarian, 0.922 µM; with SNB-19 CNS, 2.76 µM. The TGI is 7.25 µM with 786-0 renal; 19.3 µM in the assay with CCRF-CEM leukemia; over 50 µM in the assay on DU-145 prostate; over 50 µM with HS 578T breast; over 50 µM in the assay on MCF7 breast; 10.4 µM in the assay on MDA-MB-231 breast. Also, the TGI in the assay on PC-3 prostate was 41.6 µM; with SK-MEL-5 melanoma, over 50 µM; with SK-OV-3 ovarian, 2.29 µM; in the assay on SNB-19 CNS it was 38.6 µM.

On to `NNCCc1ccc(NC(=O)CCCc2ccc(C(=O)Nc3ccccc3N)cc2)cc1`, for which the GI50 with 786-0 renal was 15.7 µM; in the assay on CCRF-CEM leukemia, 3.35 µM; with DU-145 prostate, 14.5 µM; in the assay on HS 578T breast, 37.8 µM; in the assay on MCF7 breast it was 6.84 µM; in the assay with MDA-MB-231 breast, 17.4 µM. Also, the GI50 was 12 µM in the assay on PC-3 prostate, 6.19 µM in the assay on SK-MEL-5 melanoma, 18.2 µM in the assay with SK-OV-3 ovarian and 63.1 µM in the assay on SNB-19 CNS. In addition, the TGI in the assay with 786-0 renal, in the assay with CCRF-CEM leukemia, in the assay on DU-145 prostate, in the assay on HS 578T breast, with MCF7 breast and in the assay on MDA-MB-231 breast was over 100 µM each time. Also, the TGI was over 100 µM in the assay on PC-3 prostate, 21.7 µM with SK-MEL-5 melanoma, over 100 µM with SK-OV-3 ovarian and over 100 µM in the assay on SNB-19 CNS.

Consider `CCCc1cc(=O)n2c(C(=O)Nc3ccc(Cl)cc3C)c(C(=O)Nc3ccc(F)cc3)sc2n1`, for which the GI50 is 2.36 µM with 786-0 renal; 16.4 µM in the assay on CCRF-CEM leukemia; 9.37 µM in the assay with DU-145 prostate; 2.27 µM with HS 578T breast; 4.67 µM in the assay on MCF7 breast; 0.698 µM in the assay on MDA-MB-231 breast. Moreover, the GI50 was 2.07 µM in the assay with PC-3 prostate, 27.1 µM in the assay on SK-MEL-5 melanoma, 12.7 µM in the assay on SK-OV-3 ovarian and 23.8 µM in the assay with SNB-19 CNS. Also, the TGI with 786-0 renal worked out at 5.96 µM; in the assay on CCRF-CEM leukemia, 103 µM; in the assay with DU-145 prostate it was 33.3 µM; in the assay with HS 578T breast it was 8.55 µM; with MCF7 breast, 33.9 µM; in the assay on MDA-MB-231 breast, 3.08 µM. Moreover, the TGI with PC-3 prostate was 11 µM; in the assay on SK-MEL-5 melanoma, over 150 µM; in the assay on SK-OV-3 ovarian, 52.8 µM; in the assay with SNB-19 CNS, 74.2 µM.

(Values after PubChem BioAssay (NCI).)
